The values below come from patent US20080124718A1, “METHODS OF DIAGNOSING, PREDICTING THERAPEUTIC EFFICACY AND SCREENING FOR NEW THERAPEUTIC AGENTS FOR LEUKEMIA” (Panacea Pharmaceuticals, Inc., priority 2006, published 2008).

Where a name gives a salt, the structure may show the parent alone.

Assay [1] deals with human aspartyl (asparaginyl) β-hydroxylase (HAAH) mRNA expression. The assay is described as follows: HAAH mRNA expression (qRT-PCR) in patient leukocytes cultured with or without imatinib. Type of assay: cell-based. The settings on record: 1 μM imatinib, 24 hours, vs untreated cells. An excerpt:
This assay procedure allows the quantitative comparison of test RNA to a standard curve using single tube TaqMan® reactions.
Analyze as described in Perkin Elmer sequence detection system manual. A standard amplification curve of ASPH-B was obtained previously, to which unknown samples are compared to obtain the number of copies of HAAH mRNA in the sample.
Patient leukocytes were isolated from patient blood samples and grown in culture in the presence or absence of imatinib mesylate. After overnight incubation, qRT-PCR was used to determine human aspartyl (asparaginyl) β-hydroxylase (HAAH) mRNA expression in both treated and untreated cells. Percentage decrease in mRNA expression level is determined by comparing expression levels in treated vs. non-treated leukocytes from each individual patient.
[…]. This percentage change is consistent with a prediction of sensitivity to imatinib mesylate, based on numerous studies done by the present inventors. […].
(In general: In qPCR the cycle at which signal appears reflects the starting amount.)

The subject of assay [2] is gastrointestinal stromal tumor (GIST) cells, which express an activating c-kit mutation. The conditions noted are these: in vitro; cited from earlier work.

Regarding `Cc1ccc(NC(=O)c2ccc(CN3CCN(C)CC3)cc2)cc1Nc1nccc(-c2cccnc2)n1` [imatinib, Imatinib mesylate], the “decrease in HAAH expression after culture in the presence of imatinib” value in assay [1] (leukocytes of 27 CML patients (later responders)) was 30-75%. The “reduction in HAAH transcript levels after culture in the presence of imatinib” value in assay [1] (leukocytes of the 12 other CML patients (non-responders)) is recorded as < 25%. For the same compound, in assay [2], the apoptosis entry is reported as “induces apoptosis” and the proliferation entry was “inhibits proliferation”.
